From the supplement of paper PMC12137928
Where a name gives a salt, the structure may show the parent alone.

Tested on: HCT116
Conditions: 72 h
Outline: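 Each well of the 1536-well plates received 250 HCT116 cells, which attached over 5 h. Luminescence was measured with CellTiter-Glo, scaled with vehicle as 0% and positive control as -100%, and pattern-corrected. A four-parameter Hill fit yielded IC50 and maximal efficacy.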

IC50 cell viability (ICRF193 0 nM) [µM] | IC50 cell viability (ICRF193 200 nM) [µM] | Compound
> 45.8 | > 45.8 | C[C@]12C=CC(=O)N[C@@H]1CC[C@@H]1[C@@H]2CC[C@]2(C)[C@@H](C(=O)Nc3cc(C(F)(F)F)ccc3C(F)(F)F)CC[C@@H]12 [Dutasteride]
> 45.8 | > 45.8 | N[C@@H](C(=O)N[C@@H]1C(=O)N2C(C(=O)O)=C(Cl)CS[C@H]12)c1ccccc1 [CEFACLOR]
> 45.8 | > 45.8 | COc1ccc(CC(C)(C)NC[C@H](O)c2cc(O)cc3c2OCC(=O)N3)cc1 [Olodaterol]
> 45.8 | > 45.8 | CCOC(=O)Oc1ccc(CCNC(=O)[C@H](CCSC)NC(C)=O)cc1OC(=O)OCC [Docarpamine]
> 45.8 | > 45.8 | CC1(C)O[C@H]2CC(=O)OC[C@]23[C@H]2CC[C@@]4(C)[C@H](c5ccoc5)OC(=O)[C@H]5O[C@]54[C@]2(C)C(=O)C[C@@H]13 [Limoni]
> 45.8 | > 45.8 | Cc1onc(-c2ccccc2Cl)c1C(=O)N[C@@H]1C(=O)N2[C@@H]1SC(C)(C)[C@@H]2C(=O)O [Cloxacillin sodium]
> 45.8 | > 45.8 | CC1CCc2c(N3CCC(O)CC3)c(F)cc3c(=O)c(C(=O)O)cn1c23 (stereo not drawn) [Nadifloxacin]
> 45.8 | > 45.8 | Cc1c(NC(=O)c2cccnc2)c(=O)n(-c2ccccc2)n1C [Nifenazone]
> 45.8 | > 45.8 | CC(=O)/C=C/C=C1/C2CCC(C2)C1(C)C (stereo not drawn) [Bornelone]
> 45.8 | > 45.8 | OC[C@H]1O[C@@H](c2ccc(Cl)c(Cc3ccc(O[C@H]4CCOC4)cc3)c2)[C@H](O)[C@@H](O)[C@@H]1O
> 45.8 | > 45.8 | C[C@]12CCC(=O)C=C1CC[C@@H]1[C@@H]2[C@@H](O)C[C@@]2(C)[C@H]1CC[C@]2(O)C(=O)COP(=O)(O)O [Hydrocortisone Sodium Phosphate]
> 45.8 | > 45.8 | CCCN(CCc1cccs1)[C@H]1CCc2c(O)cccc2C1 [Rotigotine]
> 45.8 | > 45.8 | CC(C)=CCC/C(C)=C/CC/C(C)=C/C(=O)OCC(=O)[C@@]1(O)CC[C@H]2[C@@H]3CCC4=CC(=O)C=C[C@]4(C)[C@H]3[C@@H](O)C[C@@]21C [Prednisolone farnesylate]
> 45.8 | > 45.8 | O=C(CCCN1CCC(O)(c2ccc(Cl)cc2)CC1)c1ccc(F)cc1 [Haloperidol]
> 45.8 | > 45.8 | C[C@]12C=CC(=O)C=C1[C@@H](F)C[C@@H]1[C@@H]2[C@@H](O)C[C@@]2(C)[C@H]1CC[C@]2(O)C(=O)CO [Fluprednisolone]
> 45.8 | > 45.8 | CC(C)(C)NC(=O)N[C@H](C(=O)N1C[C@H]2[C@@H]([C@H]1C(=O)NC(CC1CCC1)C(=O)C(N)=O)C2(C)C)C(C)(C)C (stereo partly drawn) [Boceprevir]
> 45.8 | > 45.8 | CCCCC(=O)O[C@]1(C(=O)CO)CC[C@H]2[C@@H]3CCC4=CC(=O)CC[C@]4(C)[C@H]3[C@@H](O)C[C@@]21C [Hydrocortisone valerate]
> 45.8 | > 45.8 | O=C1CCC(N2C(=O)c3ccccc3C2=O)C(=O)N1 (stereo not drawn) [Thalidomide]
> 45.8 | > 45.8 | CC(C)(C)NC(=O)[C@H]1CC[C@H]2[C@@H]3CC[C@H]4NC(=O)C=C[C@]4(C)[C@H]3CC[C@]12C [Finasteride]
> 45.8 | > 45.8 | O=C(O)c1ccc(NC(=O)[C@H](Cc2ccc(O)cc2)NC(=O)c2ccccc2)cc1 [Bentiromide sodium]
> 45.8 | > 45.8 | CO/N=C(\C(=O)N[C@@H]1C(=O)N2C(C(=O)O)=C(C[N+]3(C)CCCC3)CS[C@H]12)c1csc(N)n1 [CEFEPIME HYDROCHLORIDE]
> 45.8 | > 45.8 | C#C[C@]1(O)CC[C@H]2[C@@H]3CCC4=CC(=NO)CC[C@@H]4[C@H]3CC[C@@]21CC [Norgestimate metabolite Norelgestromin]
> 45.8 | > 45.8 | C[C@@H]1C[C@H]2[C@@H]3CCC4=CC(=O)C=C[C@]4(C)[C@@]3(F)[C@@H](O)C[C@]2(C)[C@@]1(O)C(=O)COC(=O)c1ccncc1 [Dexamethasone isonicotinate]
> 45.8 | > 45.8 | C[C@H]1CNCCCN1S(=O)(=O)c1cccc2cncc(F)c12 [Ripasudil]
> 45.8 | > 45.8 | CN1CCCCC1CCN1c2ccccc2Sc2ccc([S+](C)[O-])cc21 (stereo not drawn) [Mesoridazine]
> 45.8 | > 45.8 | CCn1cc(C(=O)O)c(=O)c2cc(F)c(N3CCNCC3)nc21 [Enoxacin]
> 45.8 | > 45.8 | COC[C@H]1C[C@@H](c2nc(-c3ccc4c(c3)COc3cc5c(ccc6nc([C@@H]7CC[C@H](C)N7C(=O)[C@@H](NC(=O)OC)C(C)C)[nH]c65)cc3-4)c[nH]2)N(C(=O)[C@H](NC(=O)OC)c2ccccc2)C1 [Velpatasvir]
> 45.8 | > 45.8 | CCOC(=O)c1cc(=O)c2c(OCC(COc3cccc4oc(C(=O)OCC)cc(=O)c34)OC(=O)[C@@H](N)CCCCN)cccc2o1 [Cromoglicate lisetil]
> 45.8 | > 45.8 | CC(C)(C)NC(=O)[C@@H]1CN(Cc2cccnc2)CCN1C[C@@H](O)C[C@@H](Cc1ccccc1)C(=O)N[C@H]1c2ccccc2C[C@H]1O [Indinavir sulfate]

Further lines, the compound ahead of its results:

Compound | IC50 cell viability (ICRF193 0 nM) [µM] | IC50 cell viability (ICRF193 200 nM) [µM]
CC(=O)Nc1ccccc1 [Acetanilide] | > 45.8 | > 45.8
CCC(C)n1ncn(-c2ccc(N3CCN(c4ccc(OCC5COC(Cn6cncn6)(c6ccc(Cl)cc6Cl)O5)cc4)CC3)cc2)c1=O (stereo not drawn) [Itraconazole] | > 45.8 | > 45.8
Cc1cc2nc3c(=O)[nH]c(=O)nc-3n(CC(O)C(O)C(O)COP(=O)(O)O)c2cc1C (stereo not drawn) [RIBOFLAVIN 5-PHOSPHATE SODIUM] | > 45.8 | > 45.8
CC(=O)OC[C@H]1O[C@@](COC(C)=O)(O[C@H]2O[C@H](COC(C)=O)[C@@H](OC(C)=O)[C@H](OC(C)=O)[C@H]2OC(C)=O)[C@@H](OC(C)=O)[C@@H]1OC(C)=O [Sucrose octaacetate] | > 45.8 | > 45.8
CCOP(=S)(OCC)Oc1ccc2c(C)c(Cl)c(=O)oc2c1 [Coumaphos] | > 45.8 | > 45.8
O=C(c1ccccc1)C(O)c1ccccc1 (stereo not drawn) [Benzoin] | > 45.8 | > 45.8
CCc1cc2c(s1)-n1c(C)nnc1CN=C2c1ccccc1Cl [Etizolam] | > 45.8 | > 45.8
c1ccc(CN(CC2=NCCN2)c2ccccc2)cc1 [Antazoline hydrochloride] | > 45.8 | > 45.8
O.O.O.O.O=C([O-])CC(O)(CC(=O)[O-])C(=O)[O-].[Li+].[Li+].[Li+] [LITHIUM CITRATE] | > 45.8 | > 45.8
C[N+](C)(C)CCOC(N)=O [Carbachol] | > 45.8 | > 45.8
C[N+]1(C)[C@@H]2CC[C@H]1C[C@@H](OC(=O)C(CO)c1ccccc1)C2 (stereo partly drawn) [Methylatropine nitrate] | > 45.8 | > 45.8
CCCCCC[C@@H](O)C/C=C\CCCCCCCC(=O)O [Potassium ricinoleate] | > 45.8 | > 45.8
CCCCc1nc(Cl)c(CO)n1Cc1ccc(-c2ccccc2-c2nnn[nH]2)cc1 [Losartan] | > 45.8 | > 45.8
OB1OCc2cc(F)ccc21 [AN-2690] | > 45.8 | > 45.8
CCOC(=O)NNc1ccc(N(CC)CC(C)O)nn1 (stereo not drawn) [Cadralazine] | > 45.8 | > 45.8
CN(CCOc1ccc(NS(C)(=O)=O)cc1)CCc1ccc(NS(C)(=O)=O)cc1 [Dofetilide] | > 45.8 | > 45.8
CC1=C(/C=C/C(C)=C/C=C/C(C)=C/CO)C(C)(C)CCC1 [RETINOL] | > 45.8 | > 45.8
CNC(=O)c1c(I)c(C(=O)NCC(=O)Nc2c(I)c(C(=O)O)c(I)c(C(=O)NCCO)c2I)c(I)c(N(C)C(C)=O)c1I [Ioxaglic Acid] | > 45.8 | > 45.8
C[N+]1(CC2COC(c3ccccc3)(c3ccccc3)O2)CCCCC1 (stereo not drawn) [Anacolin] | > 45.8 | > 45.8
CN/C(=N\CCSCc1nc[nH]c1C)NC#N [Cimetidine] | > 45.8 | > 45.8
CC(C)OC(=O)C(C(=O)OC(C)C)=C1SC=CS1 [Malotilate] | > 45.8 | > 45.8
Cc1nnc2n1-c1sc(Br)cc1C(c1ccccc1Cl)=NC2 [Brotizolam] | > 45.8 | > 45.8
O=S(=O)(O)CCS [Sodium 2-mercaptoethanesulfonate] | > 45.8 | > 45.8
O=c1cc(CO)occ1O [Kojic acid] | > 45.8 | > 45.8
CCC[C@@]1(CCc2ccccc2)CC(O)=C([C@H](CC)c2cccc(NS(=O)(=O)c3ccc(C(F)(F)F)cn3)c2)C(=O)O1 [Tipranavir] | > 45.8 | > 45.8
O=C(O)c1cc(O)c(O)c(O)c1 [Gallic acid] | > 45.8 | > 45.8
CC(C)CCCC(C)NC(C)C (stereo not drawn) [IPROHEPTINE] | > 45.8 | > 45.8
O=C(O)Cc1sc(-c2ccccc2)nc1-c1ccc(Cl)cc1 [Fentiazac] | > 45.8 | > 45.8
CC(C)(C)c1nnc(NS(=O)(=O)c2ccccc2)s1 [Glybuzole] | > 45.8 | > 45.8
O=C(NCNC(=O)NC1C(=O)NC(=O)N1CO)NC1C(=O)NC(=O)N1CO (stereo not drawn) [Imidazolidinyl urea] | > 45.8 | > 45.8
